From patent US4929614A, “Benzodiazepines, process and intermediates for the preparation thereof and their application in therapy” (Jouveinal S.A., priority 1988, dated 1990)
Where two headings read alike, the source gives them in different places.

How the values were obtained:
Acute toxicity = settings: mouse, in vivo, male mice
[1] = target: T1, CCK receptors of guinea-pig brain (Cavia porcellus, UniProt H0VZC5); experiment: Inhibition of binding of sulphated [125I]-CCK8 to receptors of guinea-pig brain membranes
T1 construct: of guinea-pig brain membranes; from tissue; host or cells: guinea-pig brain membranes (males; animals from COB LABO)
T1 sequence (H0VZC5 1-426): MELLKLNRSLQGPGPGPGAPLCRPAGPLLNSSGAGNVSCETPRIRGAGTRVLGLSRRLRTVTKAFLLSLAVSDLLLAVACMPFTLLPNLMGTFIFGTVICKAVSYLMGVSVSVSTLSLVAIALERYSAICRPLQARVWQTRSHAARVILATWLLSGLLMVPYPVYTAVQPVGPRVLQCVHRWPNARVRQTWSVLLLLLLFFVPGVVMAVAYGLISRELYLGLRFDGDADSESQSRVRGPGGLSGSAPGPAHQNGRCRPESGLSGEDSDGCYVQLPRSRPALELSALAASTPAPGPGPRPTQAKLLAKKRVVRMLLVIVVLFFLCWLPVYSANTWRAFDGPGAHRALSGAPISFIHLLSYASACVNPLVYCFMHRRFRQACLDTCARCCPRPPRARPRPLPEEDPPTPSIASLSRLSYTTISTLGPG
Source text: of guinea-pig brain membranes (males, COB LABO, 325-350 g) according to the protocol described by INNIS R. B. and SNYDER S. M., Eur. J. Pharmacol., 65, 123-124, 1980.

IRWIN's tests (behavior) = settings: for IRWIN (first dose modifying one of the parameters of behavior): male mice; for selectivity ratio: mouse, in vivo
Description: The acute toxicity was evaluated and IRWIN's tests (IRWIN S., Psychopharmacologia, 13, 222-257, 1968) were performed in male mice (20-21 g).

[2] = target: T2, CCK receptors of rat pancreas (Rattus norvegicus, UniProt P30551); experiment: Inhibition of binding of sulphated [125I]-CCK8 to receptors of rat pancreas plasma membranes; settings: for ratio of the IC50 for the brain receptors to the IC50 for the pancreas receptors: guinea-pig brain / rat pancreas
T2 construct: of rat pancreas plasma membranes; from tissue; host or cells: rat pancreas plasma membranes (SD50 males; animals from IFFA CREDO)
T2 sequence (P30551 1-444): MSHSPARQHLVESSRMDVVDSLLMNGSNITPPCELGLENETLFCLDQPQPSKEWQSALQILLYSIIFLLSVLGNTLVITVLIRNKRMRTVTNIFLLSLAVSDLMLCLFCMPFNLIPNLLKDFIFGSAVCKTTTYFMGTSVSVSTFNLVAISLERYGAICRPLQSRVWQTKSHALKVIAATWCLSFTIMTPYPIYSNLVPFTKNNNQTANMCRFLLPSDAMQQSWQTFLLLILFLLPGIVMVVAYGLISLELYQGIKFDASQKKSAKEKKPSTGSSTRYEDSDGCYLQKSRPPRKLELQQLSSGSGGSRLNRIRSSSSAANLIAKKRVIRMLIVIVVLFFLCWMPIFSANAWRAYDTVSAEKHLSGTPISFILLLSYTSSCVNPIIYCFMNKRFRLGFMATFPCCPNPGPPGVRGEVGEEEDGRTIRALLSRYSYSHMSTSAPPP
Source text: of rat pancreas plasma membranes (SD50 males, IFFA CREDO, 200-225 g)

[3] = system: inhibition of gastric emptying caused by sulphated CCK-8; experiment: Gastric emptying model in mice: antagonism of the inhibition of gastric emptying caused by sulphated CCK-8; assay type: in vivo, mice (SWISS male); settings: Mus musculus, sulphated CCK-8 80 μg/kg, sc
[4] = guinea-pig brain membranes, read-out: Binding (IC50) [125I]-CCK8-SO4 Brain

Row | Structure (SMILES) | LD50 (Acute toxicity) [mg/kg] | IC50 [1] [nM] | IRWIN (first dose modifying one of the parameters of behavior) (IRWIN's tests (behavior)) [mg/kg] | selectivity ratio (IRWIN's tests (behavior)) | IC50 [2] [nM] | ratio of the IC50 for the brain receptors to the IC50 for the pancreas receptors [2] | ED50 [3] [mg/kg] | IC50 [1, 4] [nM]
1 | O=C(NC1N=C(c2ccccc2)c2cccc3c2N(CC3)C1=O)c1cc2ccccc2[nH]1 (centres unmarked) [Ia, 4-(indol-2-ylcarbonylamino)-phenyl-6-tetrahydro-1,2,3,4-pyrrolo[3,2,1-jk][1,4]benzodiazepin-3-one] | > 1000 | 1110 | > 1000 | > 7600 | 5.3 | 209.4 | 0.104 | –
2 | O=C(NC1N=C(c2ccccc2F)c2cc(Cl)cc3c2N(CC3)C1=O)c1cc2cc(Cl)ccc2[nH]1 (centres unmarked) [Il, 8-chloro-4-[(5-chloro-2-indolyl)carbonylamino]-6-(2-fluorophenyl)-1,2,3,4-tetrahydropyrrolo[3,2,1-jk][1,4]benzodiazepin-3-one] | – | – | – | – | 12.3 | 2552.2 | – | 21400
3 | O=C(NC1N=C(c2ccccc2)c2cccc3c2N(CC3)C1=O)c1cccc(I)c1 (centres unmarked) [Ic, 4-(3-Iodobenzoylamino)-6-phenyl-1,2,3,4-pyrrolo[3,2,1-j,k][1,4]benzodiazepin-3-one] | – | – | – | – | 45 | 195.6 | – | 8800
4 | CN1C(=O)C(NC(=O)c2cc3ccccc3[nH]2)N=C(c2ccccc2)c2ccccc21 (racemic) [IIa, reference compound] | > 600 | – | – | – | – | – | 0.05 | –
5 | O=C(NC1N=C(c2ccccc2)c2cccc3c2N(CC3)C1=O)c1ccc(Cl)cc1 (centres unmarked) [Ib, 4-(4-Chlorobenzoylamino)-6-phenyl-1,2,3,4-tetrahydropyrrolo-[3,2,1-jk]benzodiazepin[1,4]-3-one] | – | – | – | – | 37 | 83.8 | – | 3100
6 | O=C(NC1N=C(c2ccccc2F)c2cc(Cl)cc3c2N(CC3)C1=O)c1cc(Cl)cc(Cl)c1 (centres unmarked) [Im, 8-chloro-4-(3,5-dichlorobenzoylamino)-6-(2-fluorophenyl)-1,2,3,4-tetrahydropyrrolo[3,2,1-jk][1,4]benzodiazepin-3-one] | – | – | – | – | 30.6 | 831.1 | – | 25400
7 | O=C(NC1N=C(c2ccccc2F)c2cccc3c2N(CC3)C1=O)c1cc2ccccc2[nH]1 (centres unmarked) [Ig] | > 1000 | 366 | > 300 | > 3900 | 0.023 | 15913 | 0.076 | –
8 | O=C(N[C@H]1N=C(c2ccccc2)c2cccc3c2N(CC3)C1=O)c1cc2ccccc2[nH]1 [Ie, (-)-(4S)-4-(2-Indolylcarbonylamido)-6-phenyl-1,2,3,4-tetrahydropyrrolo[3,2,1-jk][1,4]benzodiazepin-3-one] | > 1000 | 477 | > 1000 | > 11000 | 1.5 | 318.0 | 0.087 | –
9 | O=C(N[C@@H]1N=C(c2ccccc2)c2cccc3c2N(CC3)C1=O)c1cc2ccccc2[nH]1 [If, (+)-(4R)-4-(2-Indolycarbonylamino)-6-phenyl-1,2,3,4-tetrahydropyrrolo[3,2,1-jk][1,4]benzodiazepin-3-one] | – | 24000 | – | – | 8640 | 2.8 | – | –
10 | O=C(NC1N=C(c2ccccc2)c2cccc3c2N(CCC3)C1=O)c1cc2ccccc2[nH]1 (centres unmarked) [In, 5-(2-indolylcarbonylamino)-7-phenyl-1,2,3,3a,4,5-hexahydropyrido[3,2,1-jk][1,4]benzodiazepin-4-one] | – | 407 | – | – | 3.9 | 104.4 | – | –
